Experimental findings from PubChem BioAssay AID330 (DTP/NCI, 2004) are described below.

“And” between values parts separate entries of the source, which are not always exact repeats. Identical values can stand only once. Toxic doses and inconclusive results are not listed.

In the test the test system is P388 leukemia ip, CD2F1 mice, survival T/C. As to the kind of experiment: NCI In Vivo Anticancer Drug Screen. Data for tumor model P388 Leukemia (intraperitoneal) in CD2F1 (CDF1) mice. The settings on record: endpoint: median survival time, higher = longer survival. In short, it runs like this: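 Mice carrying the transplanted tumor received test compound or vehicle. Survival was recorded in each group, and the value is the treated-group measurement divided by that of the vehicle-treated control group.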

The mark [1] stands for this setting: dose: 60.0 mg/kg/injection, schedule: Q01DX005 (ip), vehicle: saline with Tween-80.
Where [2] appears, read: dose: 120.0 mg/kg/injection, schedule: Q01DX005 (ip), vehicle: saline with Tween-80.
Where [3] appears, read: dose: 240.0 mg/kg/injection, schedule: Q01DX005 (ip), vehicle: saline with Tween-80.
[4] abbreviates: dose: 50.0 mg/kg/injection, schedule: Q01DX005 (ip), vehicle: Klucel (hydroxypropylcellulose) (HPC).
Setting [5] is: dose: 100.0 mg/kg/injection, schedule: Q01DX005 (ip), vehicle: Klucel (hydroxypropylcellulose) (HPC).
[6] abbreviates: dose: 200.0 mg/kg/injection, schedule: Q01DX005 (ip), vehicle: Klucel (hydroxypropylcellulose) (HPC).

As to `O=C1c2ccccc2C(=O)c2c(NCCNCCO)ccc(O)c21`, the T/C is 118 % of control and 122 % of control (dose: 1.25 mg/kg/injection, schedule: Q01DX009 (ip), vehicle: acid diluted with saline); 216 % of control (dose: 2.5 mg/kg/injection, schedule: Q01DX009 (ip), vehicle: acid diluted with saline); 110 % of control (dose: 3.12 mg/kg/injection, schedule: Q04DX002 (ip), vehicle: water); 258 % of control (dose: 5.0 mg/kg/injection, schedule: Q01DX005 (ip), vehicle: saline); 119 % of control (dose: 5.0 mg/kg/injection, schedule: Q01DX005 (iv), vehicle: saline); 274 % of control (dose: 5.0 mg/kg/injection, schedule: Q01DX009 (ip), vehicle: acid diluted with saline). Also, the T/C is, setting by setting: (dose: 5.0 mg/kg/injection, schedule: Q01DX009 (ip), vehicle: distilled water + Tween-80) 177 % of control; (dose: 6.25 mg/kg/injection, schedule: Q04DX002 (ip), vehicle: other) 120 % of control; (dose: 10.0 mg/kg/injection, schedule: Q01DX001 (iv), vehicle: saline) 108 % of control; (dose: 10.0 mg/kg/injection, schedule: Q01DX005 (ip), vehicle: saline) 276 % of control; (dose: 10.0 mg/kg/injection, schedule: Q01DX005 (iv), vehicle: saline) 151 % of control; (dose: 10.0 mg/kg/injection, schedule: Q01DX009 (ip), vehicle: acid diluted with saline) 436 % of control. In addition, the T/C (dose: 10.0 mg/kg/injection, schedule: Q01DX009 (ip), vehicle: distilled water + Tween-80) is 247 % of control; the T/C (dose: 10.0 mg/kg/injection, schedule: Q04DX003 (ip), vehicle: saline) was 185 % of control; the T/C (dose: 10.0 mg/kg/injection, schedule: Q04DX003 (iv), vehicle: saline) is 116 % of control; the T/C (dose: 19.4 mg/kg/injection, schedule: Q04DX003 (ip), vehicle: saline) is 259 % of control; the T/C (dose: 20.0 mg/kg/injection, schedule: Q01DX001 (ip), vehicle: saline) was 190 % of control; the T/C (dose: 20.0 mg/kg/injection, schedule: Q01DX001 (iv), vehicle: saline) is 116 % of control. Besides, the T/C is, setting by setting: (dose: 20.0 mg/kg/injection, schedule: Q01DX005 (ip), vehicle: saline) 312 % of control; (dose: 20.0 mg/kg/injection, schedule: Q01DX005 (iv), vehicle: saline) 177 % of control; (dose: 20.0 mg/kg/injection, schedule: Q01DX009 (ip), vehicle: acid diluted with saline) 158 % of control; (dose: 20.0 mg/kg/injection, schedule: Q01DX009 (ip), vehicle: distilled water + Tween-80) 211 % of control; (dose: 20.0 mg/kg/injection, schedule: Q04DX003 (ip), vehicle: saline) 214 % of control; (dose: 25.0 mg/kg/injection, schedule: Q04DX002 (ip), vehicle: other) 116 % of control. In addition, the T/C (dose: 25.0 mg/kg/injection, schedule: Q04DX002 (ip), vehicle: water) was 198 % of control; the T/C (dose: 32.4 mg/kg/injection, schedule: Q04DX003 (ip), vehicle: saline) was 211 % of control; the T/C (dose: 40.0 mg/kg/injection, schedule: Q01DX001 (ip), vehicle: saline) is 205 % of control; the T/C (dose: 40.0 mg/kg/injection, schedule: Q01DX009 (ip), vehicle: acid diluted with saline) is 150 % of control and 163 % of control; the T/C (dose: 40.0 mg/kg/injection, schedule: Q04DX003 (ip), vehicle: saline) is 223 % of control; the T/C (dose: 50.0 mg/kg/injection, schedule: Q04DX002 (ip), vehicle: other) is 103 % of control. Further, the T/C runs as follows: (dose: 50.0 mg/kg/injection, schedule: Q04DX002 (ip), vehicle: water) 261 % of control; (dose: 80.0 mg/kg/injection, schedule: Q01DX001 (ip), vehicle: saline) 178 % of control; (dose: 100.0 mg/kg/injection, schedule: Q04DX002 (ip), vehicle: water) 157 % of control and 161 % of control; (dose: 200.0 mg/kg/injection, schedule: Q04DX002 (ip), vehicle: water) 188 % of control.

For `CCOC(=S)NC(=O)c1ccccc1`, the T/C is, setting by setting: (dose: 50.0 mg/kg/injection, schedule: Q01DX009 (ip), vehicle: saline with Tween-80) 99 % of control; (dose: 100.0 mg/kg/injection, schedule: Q01DX009 (ip), vehicle: saline with Tween-80) 108 % of control; (dose: 200.0 mg/kg/injection, schedule: Q01DX009 (ip), vehicle: saline with Tween-80) 100 % of control.

Take `CCN(CC)CCCC(C)Nc1ccnc2cc(N(C)C)ccc12` (stereo not given): the T/C (dose: 6.25 mg/kg/injection, schedule: Q01DX009 (ip), vehicle: saline with Tween-80) was 93 % of control; the T/C (dose: 12.5 mg/kg/injection, schedule: Q01DX009 (ip), vehicle: saline with Tween-80) was 109 % of control; the T/C (dose: 25.0 mg/kg/injection, schedule: Q01DX009 (ip), vehicle: saline with Tween-80) was 111 % of control.

As for `N=c1c2ncn3c(=O)n(-c4ccccc4)c(nc(=O)n1-c1ccccc1)c23`, the T/C was 101 % of control under setting [1], 100 % of control under setting [2] and 98 % of control under setting [3].

Take `CC(C)(CCC(C)(C)NC(=O)C12CC3CC(CC(C3)C1)C2)NC(=O)C12CC3CC(CC(C3)C1)C2`: the T/C by setting is: (dose: 50.0 mg/kg/injection, schedule: Q01DX005 (ip), vehicle: saline with Tween-80) 90 % of control; (dose: 100.0 mg/kg/injection, schedule: Q01DX005 (ip), vehicle: saline with Tween-80) 97 % of control; (dose: 200.0 mg/kg/injection, schedule: Q01DX005 (ip), vehicle: saline with Tween-80) 97 % of control.

Take `O=C(O)c1ccccc1Cc1cccc2ccccc12`: the T/C by setting is: (dose: 100.0 mg/kg/injection, schedule: Q04DX002 (ip), vehicle: Klucel (hydroxypropylcellulose) (HPC)) 91 % of control; (dose: 200.0 mg/kg/injection, schedule: Q04DX002 (ip), vehicle: Klucel (hydroxypropylcellulose) (HPC)) 96 % of control; (dose: 400.0 mg/kg/injection, schedule: Q04DX002 (ip), vehicle: Klucel (hydroxypropylcellulose) (HPC)) 99 % of control.

On to `NCC(=O)c1ccc(O)c(O)c1`, for which the T/C by setting is: (dose: 25.0 mg/kg/injection, schedule: Q01DX009 (ip), vehicle: saline) 100 % of control; (dose: 25.0 mg/kg/injection, schedule: Q04DX003 (ip), vehicle: saline with Tween-80) 108 % of control; (dose: 50.0 mg/kg/injection, schedule: Q01DX009 (ip), vehicle: saline) 113 % of control; (dose: 50.0 mg/kg/injection, schedule: Q04DX003 (ip), vehicle: saline with Tween-80) 108 % of control; (dose: 100.0 mg/kg/injection, schedule: Q04DX003 (ip), vehicle: saline with Tween-80) 104 % of control and 121 % of control.

On to `CC1=CCC(C#N)N(C)C1c1ccccc1` (stereo not given), for which the T/C is, setting by setting: under setting [4], 108 % of control; under setting [5], 97 % of control; under setting [6], 99 % of control.

Take `Cc1cc(C)nc(NCCCCNc2nc(C)cc(C)n2)n1`: the T/C is 92 % of control under setting [4], 105 % of control under setting [5] and 100 % of control under setting [6].

As for `Cc1cnc(Sc2ncccc2[N+](=O)[O-])[nH]c1=O`, the T/C reads like this: under setting [4], 107 % of control; under setting [5], 93 % of control; under setting [6], 97 % of control.

For the molecule `S=c1nc(Oc2ccc(-c3ccccc3)cc2)[nH]c(=S)[nH]1`, the T/C was 87 % of control under setting [1], 92 % of control under setting [2] and 97 % of control under setting [3].

Turning to `CCOC(=O)C1=C(C)O/C(=C/c2ccccc2)C1=O`, the T/C was 112 % of control (dose: 50.0 mg/kg/injection, schedule: Q01DX009 (ip), vehicle: Klucel (hydroxypropylcellulose) (HPC)); 102 % of control (dose: 100.0 mg/kg/injection, schedule: Q01DX009 (ip), vehicle: Klucel (hydroxypropylcellulose) (HPC)); 92 % of control (dose: 200.0 mg/kg/injection, schedule: Q01DX009 (ip), vehicle: Klucel (hydroxypropylcellulose) (HPC)).

Regarding `CCC1CCC2COCN2C1` (stereo not given), the T/C is 104 % of control (dose: 25.0 mg/kg/injection, schedule: Q01DX005 (ip), vehicle: saline); 120 % of control (dose: 50.0 mg/kg/injection, schedule: Q01DX005 (ip), vehicle: saline); 117 % of control and 118 % of control (dose: 200.0 mg/kg/injection, schedule: Q01DX005 (ip), vehicle: saline).

`Cc1ccc(S(=O)(=O)N2CC3CC(/C=C/c4ccnc5ccccc45)CC(C3)C2)cc1` (stereo not given): the T/C was 96 % of control (dose: 25.0 mg/kg/injection, schedule: Q01DX001 (ip), vehicle: suspension in saline); 102 % of control (dose: 50.0 mg/kg/injection, schedule: Q01DX001 (ip), vehicle: suspension in saline); 95 % of control (dose: 100.0 mg/kg/injection, schedule: Q01DX001 (ip), vehicle: suspension in saline).
